From patent US7294491B2 (Ajinomoto Co., Inc., priority 2003, dated 2007)

Experiments:
[1] = precipitation concentration (super solubility) of L-glutamic acid in culture medium at pH 4.5 with added L-lysine; format: physicochemical, Pantoea ananatis AJ13601; details: pH 4.5 culture
Experimental: Cells of the Pantoea ananatis AJ13601 strain cultured at 30° C. for 14 hours in the LBG agar medium (10 g/L of trypton, 5 g/L of yeast extract, 10 g/L of NaCl, 15 g/L of agar) containing 25 mg/L of tetracycline hydrochloride and 25 mg/L of chloramphenicol were scraped from one plate and inoculated into 300 ml of seed culture medium having the following composition and contained in a 1 L-volume jar fermenter, and seed culture was performed at 34° C. and pH 6.0.
The pH was adjusted to 6.0 by adding ammonia gas during the culture. The seed culture was finished by observing depletion of the saccharide in the medium as an index, and the seed culture medium of 20% volume of the main culture medium was inoculated into 300 ml of the main culture medium contained in a 1 L-volume jar fermenter to perform the main culture under the conditions of 34° C. and pH 4.5. The composition of the main culture medium is shown below.
The pH was adjusted to 4.5 by adding ammonia gas during the culture. After the saccharide in the medium was consumed and depleted, 700 g/L of glucose aqueous solution was continuously added (6 ml/hr).
The liquid supernatant of the culture medium was obtained by centrifuging the culture medium at 10000×G for 1 minute. The polymorphism of crystals which precipitated in the culture medium was determined by microscopic observation.

[2] = crystal form of L-glutamic acid crystals precipitated in a cooling-crystallization system with added amino acid; format: physicochemical; details: FIG. 7

| control of precipitated L-glutamic acid crystal form by added amino acid ([2]; pH 3.2, super saturation 2, 34° C.) | control of precipitated L-glutamic acid crystal form by added amino acid ([2]; pH 4.5 or more, super saturation 2, 34° C.) | SMILES | concentration of added L-lysine above which α-form crystals form naturally without seed crystals [1] | control of precipitated L-glutamic acid crystal form by added amino acid ([2]; pH 4.5, super saturation 2, 34° C.) |
| --- | --- | --- | --- | --- |
| – | – | NCCCC[C@H](N)C(=O)O [L-lysine] | exceeds 900 mg/L | could be controlled to the α-form |
| showed the same effect | such an effect could not be observed | N[C@@H](Cc1ccccc1)C(=O)O [L-phenylalanine] | – | – |
